From patent US4217450A, “Imidazoledicarboxylic acid substituted cephalosporin derivatives” (Ajinomoto Company, Incorporated, priority 1977, dated 1980)
In brackets after ≈: the same amount, converted by molar mass. Structures can show the parent of a compound that is named as a salt.

System: Pseudomonas aeruginosa AJ 2116
Assay: MIC using Pseudomonas aeruginosa AJ 2116 as the test organism
Format: cell-based
Conditions: AJ2116, read-out: MIC (Minimum Inhibitory concentration)
From the text: Comparative MIC's for compounds using Pseudomonas aeruginosa AJ 2116 as the test organism are as follows: "MIC" represents the Minimum INhibitory concentration in mcg./ml of the compound required to inhibit the growth of the test organism described.

Compound | MIC [µg/mL]
CC1(C)S[C@@H]2[C@H](NC(=O)C(C(=O)O)c3ccccc3)C(=O)N2[C@H]1C(=O)O (some centres unmarked) [Carbenicillin, reference compound] | 100 (≈ 264 µM)
CC1(C)S[C@@H]2[C@H](NC(=O)[C@H](NC(=O)c3nc[nH]c3C(=O)O)c3ccccc3)C(=O)N2[C@H]1C(=O)O [I, D-α-(4-carboxyimidazole-5-carboxyamido)benzylpenicillin disodium salt monohydrate] | 12.5
NC(=O)c1cc[n+](CC2=C(C(=O)[O-])N3C(=O)[C@@H](NC(=O)[C@H](NC(=O)c4nc[nH]c4C(=O)O)c4ccccc4)[C@H]3SC2)cc1 [II, 7-β-[D-(-)-α-(4-carboxyimidazole-5-carbox-amido)-phenylacetoamido]-3-(4-carbamoylpyridinium)methyl-3-cephem-4-carboxylic acid.mixture of K and Na salt.trihydrate] | 12.5
CC1(C)S[C@@H]2[C@H](NC(=O)[C@H](NC(=O)c3nc(O)[nH]c3C(=O)O)c3ccccc3)C(=O)N2[C@H]1C(=O)O [III, D-α-(2-hydroxy-4-carboxyimidazole-5-carboxamido)benzylpenicillin] | 25 (≈ 49.7 µM)
CC1(C)S[C@@H]2[C@H](NC(=O)[C@H](NC(=O)c3nc(S)[nH]c3C(=O)O)c3ccccc3)C(=O)N2[C@H]1C(=O)O [IV, D-α-(2-mercapto-4-carboxyimidazole-5-carboxamido)benzylpenicillin] | 50 (≈ 96.2 µM)
O=C([O-])C1=C(C[n+]2ccc(CCS(=O)(=O)O)cc2)CS[C@@H]2[C@H](NC(=O)[C@H](NC(=O)c3nc[nH]c3C(=O)O)c3ccccc3)C(=O)N12 [IX, 7-β-[D-(-)-α-(4-carboxyimidazole-5-carboxamido)phenylacetamido]-3-(4-β-sulphoethylpyridinium)-methyl-3-cephem-4-carboxylic acid] | 12.5 (≈ 18.6 µM)
Cc1nc(C(=O)N[C@@H](C(=O)N[C@@H]2C(=O)N3[C@@H]2SC(C)(C)[C@@H]3C(=O)O)c2ccccc2)c(C(=O)O)[nH]1 [V, D-α-(2-methyl-4-carboxyimidazole-5-carboxamido) benzylpenicillin] | 50 (≈ 99.7 µM)
CC1(C)S[C@@H]2[C@H](NC(=O)[C@H](NC(=O)c3nc(Cl)[nH]c3C(=O)O)c3ccccc3)C(=O)N2[C@H]1C(=O)O [VI, D-α-(2-chloro-4-carboxyimidazole-5-carboxamido)benzylpenicillin] | 50 (≈ 95.8 µM)
CC1(C)S[C@@H]2[C@H](NC(=O)[C@H](NC(=O)c3nc(N)[nH]c3C(=O)O)c3ccccc3)C(=O)N2[C@H]1C(=O)O [VII, D-α-(2-amino-4-carboxyimidazole-5-carboxamido)benzylpenicillin] | 50 (≈ 99.5 µM)
Cn1nnnc1SCC1=C(C(=O)O)N2C(=O)[C@@H](NC(=O)[C@H](NC(=O)c3nc[nH]c3C(=O)O)c3ccccc3)[C@H]2SC1 [VIII, 7-β-[-(-)-α-(4-carboxyimidazole-5-carboxamido)phenylacetamido]-3-[[(1-methyl-1H-tetrazol-5-yl)thio]methyl]-3-cephem-4-carboxylic acid] | 50 (≈ 83.4 µM)
CC1(C)S[C@@H]2[C@H](NC(=O)[C@H](N)c3ccccc3)C(=O)N2[C@H]1C(=O)O [ampicillin, reference compound] | > 500
